Earlier results in patent US8461106B2, “Biofilm prevention using lactoferrin” (The Trustees of the University of Pennsylvania, priority 2007, dated 2013).

System: pseudomonas biofilms

## gentamicin
  MBEC for pseudomonas biofilms relative to MIC for planktonic pseudomonas: 60 fold
